Molecules are shown by their SMILES.

The results in this text go back to patent publication US9724337B2, “AG-205 for the treatment of breast cancer” (University of Kentucky Research Foundation, priority 2009, dated 2017).

In one test the test system is EGFR. As to the kind of experiment: EGFR immunofluorescence localization in MDA-MB-468 cells. The format is cell-based, human. The following applies: AG-205-treated cells after 24 hours, 20 μM. As to the method: To test this model, EGFR was stained by immunofluorescence 24 hours after treatment with 20 μM AG-205 in MDA-MB-468 cells. In cells treated with the vehicle control, EGFR localized to the cell membrane. In contrast, EGFR localized to both the cell membrane and an intracellular ring which corresponds to the perinuclear region of the cell. Also, Pgrmc1 may control the uptake from the membrane to the perinuclear region.
Immunofluorescence for EGFR was performed as described previously (Crudden et al., (2005) Tumour Biol 26:142-6). Cells were grown on chamber slides, washed and fixed with 3.7% formaldehyde. The cells were then permeabilized with 0.1% Triton X-100 in phosphate-buffered saline, blocked with 10% serum and incubated, in turn, with anti-EGFR 1005 and a Texas red-labeled anti-rabbit secondary antibody.

In a further test the test system is H1650. As to the kind of experiment: AG-205 viability assay in H1650 cells. It is filed as cell-based. As to the method:
Tissue culture. MDA-MB-468 cells were a kind gift from Dr. Rina Plattner of the University of Kentucky and were maintained in medium consisting of Dulbecco's Modified Eagle Medium containing 10% serum supreme (Fisher) and antibiotics. Cells were grown at 37° C. in 5% CO2 in air. A549 and HCC827 lung cancer cells, as well as SK-Br-3 breast cancer cells were obtained from the ATCC (American Type Culture Collection) and were grown under the same conditions. The H1650 lung cancer cell line was a kind gift from Dr. Heinz Kohler of the University of Kentucky. The Pgrmc1 ligand AG-205 was purchased from Timtec, Inc. The EGFR inhibitor AG1478 was from Biomol, Inc. and was used at a concentration range of 0.8-40 μM.
Proliferation, anchorage-independent growth and migration assays. For growth curves, cells were plated in 24 well dishes and grown in 10% serum-containing medium. […] Following the harvest of the final time point, the cells from each time point were counted using a Bright-line hemocytometer (Hausser Scientific).
MTT viability assays were performed as described previously. […] The cells were then incubated with 0.5 mg/ml of 3-[4,5-dimethylthiazol-2-y]-2,5-diphenyltetrazolium bromide for 1.5 hours, at which time the media was removed, the precipitated crystals were dissolved in dimethyl sulfoxide, and the absorbance at 590 nm was measured using a Bio-Tek μQuant spectrophotometer.

For a further test, the system named is A549 cells. In words: FACS cell cycle analysis. The format is cell-based, human. The following applies: triplicate FACS analysis, AG-205-treated cells. As to the method:
(A) Graph of triplicate FACS analysis. […] (B) Protein expression was analyzed by western blot for Pgrmc1 (top) and ku70 (bottom). Cells were treated with 0 (lanes 1), 2 (lanes 2), 10 (lanes 3) or 50 (lanes 4) μM AG-205 for 24 hours. […] (C-D) The panels show western blots of phosphorylated ERK1/2 (upper panels) and total ERK1/2 (lower panels) The lanes in panel C are A549/con (lane 1), A549/RNAi (lane 2), A549/LacZ (lane 3) and A549/PGR-hbd cells (lane 4) following 48 hours serum starvation. The cells infected with adenovirus were similar to those described in FIG. 3, panels C and D. In panel D, A549 cells were treated with vehicle (lane 1) or 20 μM AG-205 (lane 2) for 24 hours in serum-free media. (E) A549/con (solid line) or A549/RNAi (dashed line) cells were treated with increasing doses of AG-205 for 72 hours and viability was measured by counting, and “% viability” refers to the cell number relative to the untreated control. […] Percent viability was determined by cell counting, and “% viability” refers to the cell number relative to the untreated control. […]
FACS was performed essentially as described previously (Mallory (2005)). […] FACS analysis was performed at the University of Kentucky flow cytometry facility, and the data were analyzed using Modfit software (Verity, Inc.).
(A flow cytometer gives signals particle by particle.)

The test system of the next test is focal adhesion kinase. As to the kind of experiment: Western blot of focal adhesion kinase in A549 cells. The format is cell-based, human. As to the method: Immunological techniques. Cells were extracted in RIPA buffer (50 mM Tris, pH 8.0, 1% Nonidet P-40, 150 mM NaCl, 0.5% sodium deoxycholate, 0.1% sodium dodecyl sulfate, 1 mM phenylmethylsulfonyl fluoride, 10 μg/ml of aprotinin, leupeptin and pepstatin) for standard western blotting. The antibodies used in the study were anti-caveolin-1 (N-20, Santa Cruz Biologicals, # sc-894), anti-EGFR (1005, Santa Cruz, # sc-03), anti-ku70 (A-9, Santa Cruz # sc-5309), anti-Met (C-12, Santa Cruz # sc-10), anti-PARP (H-250, Santa Cruz # sc-7150), anti-phosphotyrosine (P-Tyr-100, Cell Signaling), anti-Pgrmc1 (Novus Biologics) and anti-tubulin (Neomarkers). Some western blots for Pgrmc1 were performed with a polyclonal antibody called anti-PGR-UK1 which was raised in rabbits to an internal 10 amino acid peptide.

A further test concerns the target Pgrmc1 (Homo sapiens, UniProt O00264). As to the kind of experiment: Western blot of Pgrmc1 in A549 cells. The following applies: A549 cells, 2, 10 or 50 μM for 24 hours. The format is cell-based. The arrangement: endogenous in cells; host or cells: A549 cells. Here is the method: (A) Graph of triplicate FACS analysis. […] (B) Protein expression was analyzed by western blot for Pgrmc1 (top) and ku70 (bottom). Cells were treated with 0 (lanes 1), 2 (lanes 2), 10 (lanes 3) or 50 (lanes 4) μM AG-205 for 24 hours. […] (C-D) The panels show western blots of phosphorylated ERK1/2 (upper panels) and total ERK1/2 (lower panels) The lanes in panel C are A549/con (lane 1), A549/RNAi (lane 2), A549/LacZ (lane 3) and A549/PGR-hbd cells (lane 4) following 48 hours serum starvation. The cells infected with adenovirus were similar to those described in FIG. 3, panels C and D. In panel D, A549 cells were treated with vehicle (lane 1) or 20 μM AG-205 (lane 2) for 24 hours in serum-free media. (E) A549/con (solid line) or A549/RNAi (dashed line) cells were treated with increasing doses of AG-205 for 72 hours and viability was measured by counting, and “% viability” refers to the cell number relative to the untreated control. (F) Cells expressing LacZ (solid line) or the Pgrmc1-hbd heme binding-deficient mutant (dashed line), were treated with increasing doses of AG-205. […] Percent viability was determined by cell counting, and “% viability” refers to the cell number relative to the untreated control. For each experiment, the results are representative of experiments performed at least in duplicate.
Immunological techniques. […]
(In general: A western blot detects proteins with antibodies after separation by electrophoresis.)

Pgrmc1, sequence (O00264 whole entry): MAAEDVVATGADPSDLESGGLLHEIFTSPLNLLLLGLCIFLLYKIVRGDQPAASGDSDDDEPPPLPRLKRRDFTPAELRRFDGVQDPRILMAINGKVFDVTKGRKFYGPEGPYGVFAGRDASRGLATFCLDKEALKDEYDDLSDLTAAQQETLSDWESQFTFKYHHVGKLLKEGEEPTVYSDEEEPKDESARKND

One may read the IC50 as the midpoint of a concentration-inhibition curve. A high value points to weaker potency. For the molecule `Cc1ccc2c(c1)[C@H]1CN(C)CC[C@H]1N2C(=O)CSc1nnnn1-c1ccc(Cl)cc1` [AG-205], the EGFR localization entry with EGFR is listed as “EGFR localized to the perinuclear region of the cell”. In the test on H1650 (H1650, lung, serum-starved, EGFR ΔE746-A750), this molecule displayed an IC50 of over 100 µM. Also, the “sensitivity to growth inhibition” value in the test with H1650 (H1650 cells, ΔE746-A750 EGFR) was “relatively insensitive”. Moreover, the cell cycle distribution entry in the test on A549 cells is “significant G1 arrest and accumulation of sub-G1 cells”. Moreover, the “stability of focal adhesion kinase” value in the test on focal adhesion kinase is “little effect”. In addition, the Pgrmc1 expression result on Pgrmc1 was “increases Pgrmc1 expression”.
